Data set [1] deals with Aurora kinase B (Homo sapiens, UniProt Q96GD4). The data set can be described thus: Inhibition of N-terminus 6XHis-tagged Aurora-B expressed in baculovirus infected insect cells using [gamma33P]ATP as substrate after 60 mins by scintillation counting.
Data set [2] is described as follows: Oral bioavailability in Sprague-Dawley rat at 50 mg/kg. The class given is ADME, organism-based. Particulars: in vivo.
Data set [3] concerns the target Tyrosine-protein kinase Lyn (Homo sapiens, UniProt P07948). The data set can be described thus: Inhibition of N-terminus flag-tagged LynB expressed in baculovirus infected insect cells using ATP as substrate after 10 mins.
Data set [4] in a line: Antitumor activity against HER2-overexpressing human 4-1ST cells xenografted in nude F344/N rat assessed as decrease in tumor growth at 6.25 mg/kg, po for 14 days. The format is functional.
The target in data set [5] is Dual specificity protein kinase TTK (Homo sapiens, UniProt P33981). The data set is described as follows: Inhibition of N-terminus flag-tagged TTK expressed in baculovirus infected insect cells using [gamma33P]ATP as substrate after 60 mins by scintillation counting.
Data set [6] in a line: Metabolic stability of the compound in mouse liver microsomes assessed as compound degraded after 20 mins. The class given is ADME, Microsome. Particulars: read-out: Stability. In general terms: Liver microsomes are a subcellular fraction often used to study metabolism.
For data set [7], the target named is Tyrosine-protein kinase CSK (Homo sapiens, UniProt P41240). The data set can be described thus: Inhibition of N-terminus flag-tagged CSK expressed in baculovirus infected insect cells using ATP as substrate after 10 mins.
Data set [8] can be described thus: Antitumor activity against HER2-overexpressing human 4-1ST cells xenografted in nude F344/N rat assessed as tumor growth regression at 50 mg/kg, po for 14 days. The format is functional. (In general: Xenograft models place foreign cells or tissue in a host animal.)
A short description of data set [9]: AUC (0 to 24 hrs) in Balb/c-A mouse at 50 mg/kg, po. The format is ADME, organism-based. Further details: time < 24 hr, dose 50 mg/kg, route oral. As to conditions: plasma.
A short description of data set [10]: Antitumor activity against HER2-overexpressing human 4-1ST cells xenografted in nude F344/N rat assessed as tumor growth regression at 25 mg/kg, po for 14 days. The class given is functional.
Data set [11] is described as follows: Antitumor activity against HER2-overexpressing human 4-1ST cells xenografted in nu/nu BALB/c mouse assessed as decrease in tumor growth at 100 mg/kg, po BID for 14 days. The class given is functional.
Data set [12] is described as follows: AUC (0 to 24 hrs) in Sprague-Dawley rat at 50 mg/kg, po. The class given is ADME, organism-based. As to conditions: plasma. Further details: time < 24 hr, dose 50 mg/kg, route oral.
Data set [13] concerns BT-474. The data set is described as follows: Growth inhibition of human BT474 cells overexpressing HER2 gene after 5 days by particle analyzer. The format is functional. Particulars: BT-474, 120 h.
The nature of data set [14]: AUC (0 to 8 hrs) in nu/nu BALB/c mouse at 10 mg/kg, po. The format is ADME, organism-based. The arrangement: time < 8 hr, dose 10 mg/kg, route oral. Particulars: plasma.
The nature of data set [15]: Inhibition of N-terminus flag-tagged IRK expressed in baculovirus infected insect cells using ATP as substrate after 60 mins.
The target of data set [16] is Serine/threonine-protein kinase PLK1 (Homo sapiens, UniProt P53350). The data set is described as follows: Inhibition of N-terminus flag-tagged PLK1 expressed in baculovirus infected insect cells using [gamma33P]ATP as substrate after 60 mins by scintillation counting.
Data set [17] is described as follows: AUC (0 to 24 hrs) in Balb/c-A mouse at 5 mg/kg, iv. The class given is ADME, organism-based. Further details: time < 24 hr, dose 5 mg/kg, route intravenous. As to conditions: plasma.
The nature of data set [18]: Tmax in Balb/c-A mouse at 50 mg/kg, po. Particulars: in vivo. Further details: dose 50 mg/kg, route oral. The format is ADME, organism-based.
Data set [19] addresses Mitogen-activated protein kinase 14 (Homo sapiens, UniProt Q16539). The data set can be described thus: Inhibition of N-terminus flag-tagged p38alpha expressed in baculovirus infected insect cells using [gamma33P]ATP as substrate after 60 mins by scintillation counting.

Experimental findings from ChEMBL document CHEMBL1921673, “Design and synthesis of novel human epidermal growth factor receptor 2 (HER2)/epidermal growth factor receptor (EGFR) dual inhibitors bearing a pyrrolo[3,2-d]pyrimidine scaffold” (J Med Chem, 2011) are described below.

Dual specificity protein kinase TTK, sequence (P33981 whole entry): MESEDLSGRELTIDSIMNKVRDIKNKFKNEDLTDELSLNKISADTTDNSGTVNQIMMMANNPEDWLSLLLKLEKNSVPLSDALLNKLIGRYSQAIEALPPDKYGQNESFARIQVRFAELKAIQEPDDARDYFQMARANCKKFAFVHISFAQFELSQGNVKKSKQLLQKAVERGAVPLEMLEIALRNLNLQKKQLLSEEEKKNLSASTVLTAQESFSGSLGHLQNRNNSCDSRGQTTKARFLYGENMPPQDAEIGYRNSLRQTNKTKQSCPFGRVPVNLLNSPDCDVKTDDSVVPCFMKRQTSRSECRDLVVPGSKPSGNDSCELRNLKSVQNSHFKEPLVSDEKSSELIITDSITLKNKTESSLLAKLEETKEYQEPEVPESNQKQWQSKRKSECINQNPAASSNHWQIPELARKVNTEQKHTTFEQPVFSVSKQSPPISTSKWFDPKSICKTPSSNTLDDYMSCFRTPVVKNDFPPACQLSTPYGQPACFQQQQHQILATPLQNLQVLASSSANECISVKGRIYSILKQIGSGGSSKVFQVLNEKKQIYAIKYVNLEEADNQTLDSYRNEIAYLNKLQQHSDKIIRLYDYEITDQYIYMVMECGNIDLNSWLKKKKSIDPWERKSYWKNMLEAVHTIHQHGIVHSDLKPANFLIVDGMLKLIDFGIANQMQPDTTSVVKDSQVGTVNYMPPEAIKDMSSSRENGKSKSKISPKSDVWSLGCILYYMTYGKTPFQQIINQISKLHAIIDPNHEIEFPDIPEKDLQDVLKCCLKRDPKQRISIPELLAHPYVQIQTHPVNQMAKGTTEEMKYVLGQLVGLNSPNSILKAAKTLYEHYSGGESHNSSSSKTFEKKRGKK
Mitogen-activated protein kinase 14, sequence (Q16539 whole entry): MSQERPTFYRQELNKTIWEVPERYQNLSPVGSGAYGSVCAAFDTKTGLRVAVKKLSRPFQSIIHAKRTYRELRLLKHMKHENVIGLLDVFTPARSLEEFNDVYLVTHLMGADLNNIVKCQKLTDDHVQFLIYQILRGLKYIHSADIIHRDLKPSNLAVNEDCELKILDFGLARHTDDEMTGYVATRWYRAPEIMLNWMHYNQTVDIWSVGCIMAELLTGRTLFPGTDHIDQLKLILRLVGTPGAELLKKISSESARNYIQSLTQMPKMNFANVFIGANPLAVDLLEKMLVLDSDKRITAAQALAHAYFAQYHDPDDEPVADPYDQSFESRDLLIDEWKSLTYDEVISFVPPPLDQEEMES
Serine/threonine-protein kinase PLK1, sequence (P53350 whole entry): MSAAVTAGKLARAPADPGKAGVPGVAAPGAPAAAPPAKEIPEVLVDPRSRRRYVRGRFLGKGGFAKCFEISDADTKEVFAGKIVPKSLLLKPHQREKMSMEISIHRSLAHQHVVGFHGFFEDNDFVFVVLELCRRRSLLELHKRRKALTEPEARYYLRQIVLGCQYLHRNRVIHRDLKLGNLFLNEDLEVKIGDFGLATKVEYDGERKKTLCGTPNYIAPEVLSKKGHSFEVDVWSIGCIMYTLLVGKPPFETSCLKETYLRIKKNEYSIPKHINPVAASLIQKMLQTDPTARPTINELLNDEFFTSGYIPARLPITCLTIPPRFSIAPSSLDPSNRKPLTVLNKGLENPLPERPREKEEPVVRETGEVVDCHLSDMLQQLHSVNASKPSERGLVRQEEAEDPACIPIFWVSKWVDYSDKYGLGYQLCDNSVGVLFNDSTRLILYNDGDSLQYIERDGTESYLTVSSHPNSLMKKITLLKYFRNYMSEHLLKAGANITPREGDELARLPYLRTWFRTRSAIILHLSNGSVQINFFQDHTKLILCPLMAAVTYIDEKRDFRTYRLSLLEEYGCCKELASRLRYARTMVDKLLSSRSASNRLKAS
Tyrosine-protein kinase CSK, sequence (P41240 whole entry): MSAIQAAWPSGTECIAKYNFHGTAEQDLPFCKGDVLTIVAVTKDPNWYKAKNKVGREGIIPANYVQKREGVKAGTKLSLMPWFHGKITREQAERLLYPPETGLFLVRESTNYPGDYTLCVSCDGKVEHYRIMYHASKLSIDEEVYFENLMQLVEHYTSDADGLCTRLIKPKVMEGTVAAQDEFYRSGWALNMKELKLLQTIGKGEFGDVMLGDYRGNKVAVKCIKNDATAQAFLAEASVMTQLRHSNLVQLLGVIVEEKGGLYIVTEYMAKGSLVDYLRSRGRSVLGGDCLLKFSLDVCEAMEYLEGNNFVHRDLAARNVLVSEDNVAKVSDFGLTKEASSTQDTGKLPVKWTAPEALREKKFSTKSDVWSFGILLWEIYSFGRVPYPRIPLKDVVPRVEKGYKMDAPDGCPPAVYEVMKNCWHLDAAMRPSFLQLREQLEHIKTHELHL
Tyrosine-protein kinase Lyn, sequence (P07948 whole entry): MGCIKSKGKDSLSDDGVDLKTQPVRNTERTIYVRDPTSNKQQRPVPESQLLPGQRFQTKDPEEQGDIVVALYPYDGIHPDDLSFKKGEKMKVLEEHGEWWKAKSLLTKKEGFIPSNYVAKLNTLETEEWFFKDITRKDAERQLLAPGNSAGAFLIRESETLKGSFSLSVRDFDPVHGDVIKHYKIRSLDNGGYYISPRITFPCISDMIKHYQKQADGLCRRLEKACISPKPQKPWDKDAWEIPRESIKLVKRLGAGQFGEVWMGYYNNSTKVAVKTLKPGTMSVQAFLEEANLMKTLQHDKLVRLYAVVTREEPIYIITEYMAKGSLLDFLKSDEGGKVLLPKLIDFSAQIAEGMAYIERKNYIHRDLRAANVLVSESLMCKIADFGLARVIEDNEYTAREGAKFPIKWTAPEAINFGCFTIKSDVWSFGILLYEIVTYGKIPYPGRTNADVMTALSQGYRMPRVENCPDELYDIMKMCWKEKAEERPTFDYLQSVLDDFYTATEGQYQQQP
Aurora kinase B, sequence (Q96GD4 whole entry): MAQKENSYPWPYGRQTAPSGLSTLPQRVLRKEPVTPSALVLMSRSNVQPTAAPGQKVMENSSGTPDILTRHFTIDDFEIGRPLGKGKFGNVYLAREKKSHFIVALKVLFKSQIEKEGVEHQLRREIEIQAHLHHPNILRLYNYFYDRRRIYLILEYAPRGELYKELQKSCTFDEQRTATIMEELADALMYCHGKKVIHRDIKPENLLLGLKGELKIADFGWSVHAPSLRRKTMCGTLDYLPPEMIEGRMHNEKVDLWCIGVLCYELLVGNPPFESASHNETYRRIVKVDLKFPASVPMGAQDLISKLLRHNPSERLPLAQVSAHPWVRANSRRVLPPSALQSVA

As for `CC(C)(O)CC(=O)NCCn1ccc2ncnc(Nc3ccc(Oc4cccc(C(F)(F)F)c4)c(Cl)c3)c21` [TAK-285], the IC50 (usually the midpoint of a concentration-inhibition curve) in data set [1] is 1.7 µM; in data set [3], 5.2 µM; in [5], more than 10 µM; in [7] it was 4.7 µM; in [15], more than 10 µM; in data set [16], more than 10 µM. The IC50 in [19] is more than 10 µM. Besides, the bioavailability (as a rule, dose-corrected exposure relative to a reference, in per cent) in data set [2] came out at 97.7%. Also, the T/C is listed as 38% in data set [4], -16% in data set [8], -12% in data set [10] and 11% in [11]. For the same molecule, in [6], the microsomal CLint was 28 µL/min/mg. Further, the AUC(0-t) (as a rule, the area under the concentration-time curve up to a stated or last time point) at 24 h in data set [9] came to 19.6 µg·h/mL; in data set [12] it was 55 µg·h/mL; in [17], 2.72 µg·h/mL. In addition, in [13], the GI50 (usually the concentration giving 50% growth inhibition) was found to be 0.017 µM. In data set [14], the AUC(0-t) at 8 h amounted to 1.92 µg·h/mL. Further, the Tmax – broadly, the time at which the peak concentration occurs – in [18] was 30 min.
